System: ovariectomized pregnant rats
Experiment: pregnancy maintenance test in rats
Format: in vivo
Settings: subcutaneous once daily from day 8 of pregnancy, with estrone 5 μg/kg/day
Text: Executing the Pregnancy Maintenance Test in Rats:
In pregnant rats, removal of the corpora lutea or castration induces abortion. By exogenous supplying of progestins (gestagens) in combination with a suitable dose of estrogen, pregnancy can be maintained. The pregnancy maintenance test in ovariectomized rats serves to determine peripheral gestagenic activity of a compound.
Rats are paired up during the proestrus overnight. Mating is monitored on the morning of the following day by vaginal smear inspection. The presence of sperm is considered in this case as day 1 of the beginning of pregnancy. On day 8 of pregnancy, the animals are ovariectomized under ether anesthesia. […]
At the end of the test (day 15 or day 21), the animals are sacrificed under CO2 atmosphere, and live fetuses (fetuses with beating hearts) and implantation sites (early resorptions and dead fetuses including autolysis and atrophic placentas) in both uterine horns are counted. […] In uteri without fetuses or implantation sites, the number of nidation sites is determined by staining with 10% ammonium sulfide solution. The pregnancy maintenance rate is calculated as the quotient of the number of living fetuses and the total number of nidation sites (both resorbed and dead fetuses as well as nidation sites). […]

SMILES | pregnancy-maintaining dose (ED50)
CCC12CCC3C4CCC(=O)C=C4C4CC4C3C1C1CC1C21CCC(=O)O1 (stereo not drawn) [compound 3a, 18-Methyl-6α,7α-15β,16β-dimethylene-3-oxo-19-nor-17-pregn-4-ene-21,17-carbolactone] | 120 µg/kg/day
C[C@]12CCC(=O)C=C1[C@@H]1C[C@@H]1[C@H]1[C@@H]3[C@@H]4C[C@@H]4[C@@]4(CCC(=O)O4)[C@@]3(C)CC[C@@H]12 [drospirenone, 6β,7β-15β,16β-dimethylene-3-oxo-17-pregn-4-ene-21,17β-carbolactone] | 3500 µg/kg/day
